Experimental data published in US20230000996A1, “RAPAFUCIN DERIVATIVE COMPOUNDS AND METHODS OF USE THEREOF” (The Johns Hopkins University, priority 2019, published 2023).
Numbered stars: 1 amine (or outer) side, 2 acyl side, 3 side chain; on linkers, the order of the positions; unused ones are H or OH. Square brackets hold non-standard residues; d marks the D form. Side chains are listed from the residue outwards. Peptide text beside a SMILES is read from it. * marks the point of attachment. X1 = COc1ccc(CC[C@@H](N[*:1])c2cccc(OCC(=O)[*:2])c2)cc1OC; X2 = CN(CCC=CC(=O)OCC(C)(C)C(=O)C(=O)[*:2])[*:1]; NMeY = CN[C@@H](Cc1ccc(O)cc1)C(=O)O; Pip = O=C(O)[C@@H]1CCCCN1; Morpholide = C1CN(*)CCO1; CO = O=C([*:1])[*:2]; Sar = CNCC(=O)O

Columns and labels:
H929 = assay: Cell proliferation assay (Prolif.), H929; type: cell-based; settings: H929 cells; scored relative to DMSO control
293T = assay: Nucleoside uptake assay (3H-Thymidine), IC50 scored relative to DMSO control; type: cell-based; settings: 293T cells
Protocol: Nucleoside Uptake Assay (uptake). Nuceloside uptake assays were performed with using 3H-Thymidine as described in Guo et al. (2018) Nat. Chem. 11:254-63. Specific cell lines are indicated in each assay and cultured in complete growth media. Activity is scored according to the IC50 values relative to DMSO control. “Low” indicates an IC50 greater than 600 nM, “Medium” indicates an IC50 between 300 nM and 600 nM “High” indicates an IC50 less than 300 nM. “Rel.Uptake” refers to uptake activity characterization relative to a single concentration assay. “Low” indicates a response greater than 0.6 times the activity relative to DMSO, “Medium” indicates a response between 0.6 and 0.3 times the activity relative to DMSO, “High” indicates a response less than 0.3 times the activity relative to DMSO.

[1] = Nucleoside uptake, single concentration assay (Rel.Uptake); cell line indicated in each table; type: cell-based; settings: nucleoside uptake, single concentration assay, 293T cells, response relative to DMSO
In short: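 3H-thymidine uptake measured in the indicated cell lines (e.g. 293T) grown in complete media. IC50 scored relative to DMSO control as Low >600 nM, Medium 300-600 nM, High <300 nM; Rel.Uptake single-concentration response vs DMSO scored Low >0.6, Medium 0.3-0.6, High <0.3.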

[2] = test system: Rat Renal Ischemia-Reperfusion model; assay: Rat Renal Ischemia-Reperfusion model; type: in vivo, Sprague Dawley Rats; settings: treated 30 min prior to right nephrectomy and left renal clamping; 24 hours of reperfusion; 1593 at 12 or 4 mg/kg, 1594 at 4 mg/kg
Protocol: Briefly, Sprague Dawley Rats were treated test compound 30 min prior to a right nephrectomy and with underwent clamping of the left renal clamping for 15 mins. After 24 hours of reperfusion, blood was collected to measure biomarkers for kidney damage and the kidney was removed for histology. […] SHAM indicates an animal group with right nephrectomy without ischemic injury. VE indicates vehicle. DPA indicates dipyridamole administered in a dosage of 10 mg/kg. Compound 1593 was administered at a high dosage (12 mg/kg) or a low dosage (4 mg/kg). Compound 1594 was administered at 4 mg/kg.

SMILES | Prolif. H929 (H929) | Uptake, 293T (293T; nucleoside uptake) | Rel. Uptake, 293T [1] | Uptake, 293T (293T; 3H-Thymidine uptake, IC50 class relative to DMSO control) | efficacy in Rat Renal Ischemia-Reperfusion model [2]
COc1ccc(CC[C@H]2NC(=O)[C@@H]3CCCCN3C(=O)C(=O)C(C)(C)COC(=O)C=CCCN(C)C(=O)[C@@H](Cc3ccccc3)NC(=O)CN(C)C(=O)[C@@H](Cc3ccccc3)NC(=O)[C@H](Cc3ccc(OC(=O)N4CCOCC4)cc3)N(C)C(=O)COc3cccc2c3)cc1OC [Compound 877] (cyclo([NMeY]([CO-Morpholide])[dF][Sar][dF][X2][Pip][X1])) | low |  |  |  | 
COc1ccc(CC[C@H]2OC(=O)[C@@H]3CCCCN3C(=O)C(=O)C(C)(C)COC(=O)C=CCCN(C)C(=O)[C@H](CC(C)C)N(C)C(=O)[C@H]3CCCN3C(=O)[C@H](Cc3ccc(C(=O)Nc4ccccc4)cc3)NC(=O)[C@H](c3ccccc3)NC(=O)CCC(=O)Nc3cccc2c3)cc1OC [Compound 1559] |  | medium | medium |  | 
COc1ccc(CC[C@H]2NC(=O)[C@@H]3CCCCN3C(=O)C(=O)C(C)(C)COC(=O)C=CCCN(C)C(=O)[C@H](CC(C)C)N(C)C(=O)[C@H]3CCCN3C(=O)[C@H](Cc3ccccc3)N(C)C(=O)C(c3ccccc3)NC(=O)CCC(=O)Nc3cccc2c3)cc1OC (stereo partly shown) [Compound 1557] |  |  | high | high | 
COc1ccc(CC[C@H]2OC(=O)[C@@H]3CCCCN3C(=O)C(=O)C(C)(C)COC(=O)/C=C/CCN(C)C(=O)[C@H](CC(C)C)N(C)C(=O)[C@H]3CCCN3C(=O)[C@H](Cc3ccccc3)NC(=O)[C@H](c3ccccc3)NC(=O)CCC(=O)Nc3cccc2c3)cc1OC [Compound 1594] |  |  | Low (“Low” indicates a response greater than 0.6 times the activity relative to DMSO) |  | efficacious
